{
  "source": "patent US9174949B2",
  "about": "“Hedgehog inhibitors” (SELEXAGEN THERAPEUTICS, INC., priority 2010, dated 2015)",
  "key": {"[1]": {"test_system": "hedgehog pathway signaling", "assay": "Modified Method A: purmorphamine stimulated alkaline phosphatase activity in C3H10T1/2 cells", "format": "cell-based", "details": "Mus musculus, C3H 10T1/2, compound at 500 nM, 100 nM purmorphamine, 72 hours, read-out: Activity Ranking (percent activity compared to control alkaline phosphatase activity)"}, "[2]": {"test_system": "hedgehog pathway signaling", "assay": "Method A: cell differentiation assay, sonic hedgehog stimulated alkaline phosphatase activity", "format": "cell-based", "details": "Mus musculus, Shh-N 2 μg/mL, 72 hours, C3H10T1/2 or M2-10B4 cells", "experimental": "The ability of compounds described in the current invention to inhibit hedgehog pathway signaling was determined from the following cell differentiation assays (Method A, or Modified Method A as described below) in which cellular alkaline phosphatase activity is assessed in the presence of control vehicle or test compound, as previously described in the literature (Wu et al., Chemistry & Biology, 11: 1229-1238, 2004; Couve-Privat, et al., Cancer Research, 64; 3559-3565, 2004; Dwyer et al., J. Biological Chemistry, 282: 8959-8968, 2007) with modifications as described below.\nMethod A: Mouse C3H10T1/2 (CCL-226™) or M2-10B4 (CRL-1972™) cells obtained from the American Type Tissue Culture Collection (Maryland, USA) were cultured to 60-80% confluence in Dulbecco's modified Eagle's Medium (C3H10T1/2 cells) containing heat-inactivated 10% fetal bovine serum or RPMI-1640 media (M2-10B4 cells) containing heat-inactivated 10% fetal bovine serum. Cell cultures were maintained in 10 U/mL penicillin, 100 μg/mL streptomycin and 2 mM glutamine. Cells were then trypsinized, counted and plated into 96-well microtiter plates prior to incubation overnight at 37° C. in 5% CO2. […] Similarly, an IC90 was determined. […]"}},
  "data": [
    {"smiles": "O=C(Nc1ccc(-c2cscn2)cc1)c1ccccc1Cl", "note": "[Example 10, 2-chloro-N-(4-(thiazol-4-yl)phenyl)benzamide]", "values": [
      {"measurement": "activity at 0.5 µM", "setting": "[1]", "value": "26 to 50", "unit": "%"}
    ]},
    {"smiles": "COc1ccc(C(=O)Nc2ccc(-c3csc(C)n3)cc2)cc1", "note": "[Example 3]", "values": [
      {"measurement": "activity at 0.5 µM", "setting": "[1]", "value": "0 to 25", "unit": "%"}
    ]},
    {"smiles": "Cc1nc(-c2ccc(NC(=O)c3ccccc3Cl)cc2)cs1", "note": "[Example 14]", "values": [
      {"measurement": "activity at 0.5 µM", "setting": "[1]", "value": "0 to 25", "unit": "%"}
    ]},
    {"smiles": "COc1ccc(C(=O)Nc2ccc(-c3csc(C)n3)cc2)c(CN2CCOCC2)c1", "note": "[Example 5]", "values": [
      {"measurement": "activity at 0.5 µM", "setting": "[1]", "value": "0 to 25", "unit": "%"}
    ]},
    {"smiles": "Cc1nc(-c2ccc(NC(=O)c3ccccc3S(C)(=O)=O)cc2)cs1", "note": "[Example 15]", "values": [
      {"measurement": "activity at 0.5 µM", "setting": "[1]", "value": "76 to 100", "unit": "%"}
    ]},
    {"smiles": "Cc1nc(-c2ccc(NC(=O)c3ccc(Cl)cc3Cl)cc2)cs1", "note": "[Example 1, 2,4-dichloro-N-(4-(2-methylthiazol-4-yl)phenyl)benzamide]", "values": [
      {"measurement": "activity at 0.5 µM", "setting": "[1]", "value": "0 to 25", "unit": "%"}
    ]},
    {"smiles": "Cc1nc(-c2ccc(NC(=O)c3ccc(S(C)(=O)=O)cc3Cl)cc2Cl)cs1", "note": "[Example 7, 2-chloro-N-(3-chloro-4-(2-methylthiazol-4-yl)phenyl)-4-(methylsulfonyl)benzamide]", "values": [
      {"measurement": "activity at 0.5 µM", "setting": "[1]", "value": "51 to 75", "unit": "%"}
    ]},
    {"smiles": "Cc1nc(-c2ccc(NC(=O)c3ccc(S(C)(=O)=O)cc3Cl)cc2)cs1", "note": "[Example 4, 2-chloro-4-(methylsulfonyl)-N-(4-(2-methylthiazol-4-yl)phenyl)benzamide]", "values": [
      {"measurement": "activity at 0.5 µM", "setting": "[1]", "value": "0 to 25", "unit": "%"},
      {"measurement": "IC90", "setting": "[2]", "value": 300, "unit": "nM"},
      {"measurement": "IC50", "setting": "[2]; read-out: IC50 (50% inhibition of sonic hedgehog stimulated alkaline phosphatase activity)", "value": 63, "unit": "nM"}
    ]},
    {"smiles": "CS(=O)(=O)c1ccc(C(=O)Nc2ccc(-c3csc(CO)n3)cc2)c(Cl)c1", "note": "[Example 13, 2-chloro-N-(4-(2-(hydroxymethyl)thiazol-4-yl)phenyl)-4-(methylsulfonyl)benzamide]", "values": [
      {"measurement": "activity at 0.5 µM", "setting": "[1]", "value": "51 to 75", "unit": "%"}
    ]},
    {"smiles": "COc1ccc(C(=O)Nc2ccc(-c3csc(C)n3)cc2)c(Cl)c1", "note": "[Example 8]", "values": [
      {"measurement": "activity at 0.5 µM", "setting": "[1]", "value": "0 to 25", "unit": "%"}
    ]},
    {"smiles": "Cc1nc(-c2ccc(NC(=O)c3ccc(C#N)cc3)cc2)cs1", "note": "[Example 18]", "values": [
      {"measurement": "activity at 0.5 µM", "setting": "[1]", "value": "26 to 50", "unit": "%"}
    ]},
    {"smiles": "COc1ccc(C(=O)Nc2ccc(-c3csc(C)n3)cc2)c(C)c1", "note": "[Example 16]", "values": [
      {"measurement": "activity at 0.5 µM", "setting": "[1]", "value": "0 to 25", "unit": "%"}
    ]},
    {"smiles": "COc1cc(C(=O)Nc2ccc(-c3csc(C)n3)cc2)cc(OC)c1OC", "note": "[Example 2]", "values": [
      {"measurement": "activity at 0.5 µM", "setting": "[1]", "value": "51 to 75", "unit": "%"}
    ]},
    {"smiles": "COc1ccc(C(=O)Nc2ccc(-c3csc(C)n3)cc2)c(F)c1", "note": "[Example 17]", "values": [
      {"measurement": "activity at 0.5 µM", "setting": "[1]", "value": "0 to 25", "unit": "%"}
    ]},
    {"smiles": "Cc1nc(-c2ccc(N(C)C(=O)c3ccc(S(C)(=O)=O)cc3Cl)cc2)cs1", "note": "[Example 9, 2-chloro-N-methyl-4-(methylsulfonyl)-N-(4-(2-methylthiazol-4-yl)phenyl)benzamide]", "values": [
      {"measurement": "activity at 0.5 µM", "setting": "[1]", "value": "76 to 100", "unit": "%"}
    ]},
    {"smiles": "CS(=O)(=O)c1ccc(C(=O)Nc2ccc(-c3cscn3)cc2)c(Cl)c1", "note": "[Example 11, 2-chloro-(4-methylsulfonyl)-N-(4-(thiazol-4-yl)phenyl)benzamide]", "values": [
      {"measurement": "activity at 0.5 µM", "setting": "[1]", "value": "26 to 50", "unit": "%"}
    ]},
    {"smiles": "Cc1nc(-c2ccc(NC(=O)c3ccc(S(C)(=O)=O)cc3Cl)cc2)co1", "note": "[Example 6]", "values": [
      {"measurement": "activity at 0.5 µM", "setting": "[1]", "value": "26 to 50", "unit": "%"}
    ]},
    {"smiles": "CC(C)(O)c1nc(-c2ccc(NC(=O)c3ccc(S(C)(=O)=O)cc3Cl)cc2)cs1", "note": "[Example 12, 2-chloro-N-(4-(2-(2-hydroxypropan-2-yl)thiazol-4-yl)phenyl)-4-(methylsulfonyl)benzamide]", "values": [
      {"measurement": "activity at 0.5 µM", "setting": "[1]", "value": "26 to 50", "unit": "%"}
    ]}
  ]
}
